This note sets out measurements from patent US11161839B2, “2-quinolone derived inhibitors of BCL6” (Cancer Research Technology Limited, priority 2017, dated 2021).

For the experiment, the target named is human BCL6 BTB domain (Trx-6xHis-BCL6) (Homo sapiens (Human), UniProt P41182). Kind of experiment: HTRF in vitro assay (BCL6 BTB domain / BCOR-AF633 peptide). The note with it: for IC50: read-out: HTRF pIC50 (converted). It counts as binding.
The mark [1] stands for this setting: initially generated data (Table 1a), 10 nM Trx-6xHis-BCL6, 1 nM anti-6xHis-Terbium cryptate.
[2] abbreviates: further generated data (Table 1b), 1 nM Trx-6xHis-BCL6, 0.5 nM anti-6xHis-Terbium cryptate.

Read-outs that look alike come from different tables or passages of the source.

Experimental: The % inhibition at each concentration was calculated by normalising FRET ratio to the appropriate high (DMSO with all reagents) and low (DMSO without BCL6) controls.

Take `CCNC(=O)C(C)Nc1cc(=O)n(C)c2ccc(Nc3ccnc(Cl)c3C#N)cc12` (racemic) [Example 3k, rac-2-((6-((2-Chloro-3-cyanopyridin-4-yl)amino)-1-methyl-2-oxo-1,2-dihydroquinolin-4-yl)amino)-N-ethylpropanamide]: the IC50 under setting [1] is 676 nM.

Regarding `CC[C@@H]1C[C@H]1Nc1cc(=O)n(C)c2ccc(Nc3cc(C(=O)O)nc(Cl)c3C#N)cc12` (racemic) [Example 9i, rac-6-chloro-5-cyano-4-((4-(((1R,2R)-2-ethylcyclopropyl)amino)-1-methyl-2-oxo-1,2-dihydroquinolin-6-yl)amino)picolinic acid], under setting [2], the IC50 is 245 nM. Still for that read-out and setting: then `CNC(=O)c1cc(Nc2ccc3c(c2)c(N[C@H]2CCC[C@H]2OC)cc(=O)n3C)c(C#N)c(Cl)n1` (racemic) [Example 19g, rac-6-chloro-5-cyano-4((4-(((1S,2R)-2-methoxycyclopentyl)amino)-1-methyl-2-oxo-1,2-dihydroquinolin-6-yl)amino)-N-methylpicolinamide], with 851 nM; and `COC1CCC1Nc1cc(=O)n(C)c2ccc(Nc3ccnc(Cl)c3C#N)cc12` (racemic) [Example 22b, rac-2-chloro-4-((4-(((1R,2S)-2-methoxycyclobutyl)amino)-1-methyl-2-oxo-1,2-dihydroquinolin-6-yl)amino)nicotinonitrile or rac-2-chloro-4-((4-(((1R,2R)-2-methoxycyclobutyl)amino)-1-methyl-2-oxo-1,2-dihydroquinolin-6-yl)amino)nicotinonitrile], with 575 nM.

On to `CNC(=O)c1cc(Nc2ccc3c(c2)c(NC2CCC2OC)cc(=O)n3C)c(C#N)c(Cl)n1` (racemic) [Example 23b, rac-6-chloro-5-cyano 4-((4-(((1R,2R)-2-methoxycyclobutyl)amino)-1-methyl-2-oxo-1,2-dihydroquinolin-6-yl)amino)-N-methylpicolinamide or rac-6-chloro-5-cyano-4-((4-(((1R,2S)-2-methoxycyclobutyl)amino)-1-methyl-2-oxo-1,2-dihydroquinolin-6-yl)amino)-N-methylpicolinamide], for which, under setting [2], the IC50 was 468 nM. As for `CC(Nc1cc(=O)n(C)c2ccc(Nc3ccnc(Cl)c3C#N)cc12)c1nc[nH]n1` (stereo not shown) [Example 1e, 2-chloro-4-[[1-methyl-2-oxo-4-[1-(1H-1,2,4-triazol-3-yl)ethylamino]-6-quinolyl]amino]pyridine-3-carbonitrile], the “HTRF pIC50” value by setting is: under setting [2], 6.08; under setting [1], 6.50. Take `Cn1c(=O)cc(N[C@H]2C[C@H](O)C2)c2cc(Nc3ccnc(Cl)c3C#N)ccc21` [Example 1f, trans-2-chloro-4-[[4-[(3-hydroxycyclobutyl)amino]-1-methyl-2-oxo-6-quinolyl]amino]pyridine-3-carbonitrile]: the “HTRF pIC50” value is, setting by setting: under setting [2], 6.27; under setting [1], 6.37.

`Cn1c(=O)cc(N[C@H]2CCOC2)c2cc(Nc3ccnc(Cl)c3C#N)ccc21` [Example 1g, 2-chloro-4-[[1-methyl-2-oxo-4-[[(3S)-tetrahydrofuran-3-yl]amino]-6-quinolyl]amino]pyridine-3-carbonitrile]: the “HTRF pIC50” value was 6.13 under setting [2] and 6.10 under setting [1].

For the compound `Cc1nc(C(C)Nc2cc(=O)n(C)c3ccc(Nc4ccnc(Cl)c4C#N)cc23)no1` (stereo not shown) [Example 1h, 2-chloro-4-[[1-methyl-4-[1-(5-methyl-1,2,4-oxadiazol-3-yl)ethylamino]-2-oxo-6-quinolyl]amino]pyridine-3-carbonitrile], the “HTRF pIC50” value is 6.38 under setting [2] and 6.40 under setting [1]. As to `Cc1ccnc(C(C)Nc2cc(=O)n(C)c3ccc(Nc4ccnc(Cl)c4C#N)cc23)n1` (stereo not shown) [Example 1i, 2-chloro-4-[[1-methyl-4-[1-(4-methylpyrimidin-2-yl)ethylamino]-2-oxo-6-quinolyl]amino]pyridine-3-carbonitrile], the “HTRF pIC50” value by setting is: under setting [2], 6.26; under setting [1], 6.31. The corresponding values for `CC(Nc1cc(=O)n(C)c2ccc(Nc3ccnc(Cl)c3C#N)cc12)c1cnccn1` (stereo not shown) [Example 1j, 2-chloro-4-[[1-methyl-2-oxo-4-(1-pyrazin-2-ylethylamino)-6-quinolyl]amino]pyridine-3-carbonitrile] are 6.29 and 6.27.

For the compound `CC(CCO)Nc1nc(=O)n(C)c2ccc(Nc3ccnc(Cl)c3C#N)cc12` (stereo not shown) [Example 1k, 2-chloro-4-[[4-[(3-hydroxy-1-methyl-propyl)amino]-1-methyl-2-oxo-quinazolin-6-yl]amino]pyridine-3-carbonitrile], the “HTRF pIC50” value is, setting by setting: under setting [2], 5.95; under setting [1], 6.19. For the compound `CC(CO)Nc1nc(=O)n(C)c2ccc(Nc3ccnc(Cl)c3C#N)cc12` (stereo not shown) [Example 1l, 2-chloro-4-[[4-[(2-hydroxy-1-methyl-ethyl)amino]-1-methyl-2-oxo-quinazolin-6-yl]amino]pyridine-3-carbonitrile], the “HTRF pIC50” value reads like this: under setting [2], 5.98; under setting [1], 6.18. Take `CCNc1cc(=O)n(CCOCCOC)c2ccc(Nc3ccnc(Cl)c3C#N)cc12` [Example 1o, 2-chloro-4-[[4-(ethylamino)-1-[2-(2-methoxyethoxy)ethyl]-2-oxo-6-quinolyl]amino]pyridine-3-carbonitrile]: the IC50 under setting [2] is 708 nM. As for `CC(Nc1cc(=O)n(C)c2ccc(Nc3ccnc(Cl)c3C#N)cc12)c1ccncn1` (stereo not shown) [Example 1q, 2-chloro-4-[[1-methyl-2-oxo-4-(1-pyrimidin-4-ylethylamino)-6-quinolyl]amino]pyridine-3-carbonitrile], the “HTRF pIC50” value turned out to be 6.29 under setting [2] and 6.10 under setting [1].

Regarding `CCNc1cc(=O)n(CCN2C(=O)CCC2=O)c2ccc(Nc3ccnc(Cl)c3C#N)cc12` [Example 1r, 2-chloro-4-[[1-[2-(2,5-dioxopyrrolidin-1-yl)ethyl]-4-(ethylamino)-2-oxo-6-quinolyl]amino]pyridine-3-carbonitrile], the “HTRF pIC50” value reads like this: under setting [2], 6.25; under setting [1], 6.05. Consider `CC(Nc1cc(=O)n(C)c2ccc(Nc3ccnc(Cl)c3C#N)cc12)c1nccs1` (stereo not shown) [Example 1s, 2-chloro-4-[[1-methyl-2-oxo-4-(1-thiazol-2-ylethylamino)-6-quinolyl]amino]pyridine-3-carbonitrile], for which the “HTRF pIC50” value by setting is: under setting [2], 6.07; under setting [1], 6.03.

In the case of `CC(Nc1cc(=O)n(C)c2ccc(Nc3ccnc(Cl)c3C#N)cc12)c1cc[nH]n1` (stereo not shown) [Example 1t, 2-chloro-4-[[1-methyl-2-oxo-4-[1-(1H-pyrazol-3-yl)ethylamino]-6-quinolyl]amino]pyridine-3-carbonitrile], the “HTRF pIC50” value under setting [2] worked out at 5.84 and the “HTRF pIC50” value under setting [1] stood at 6.00.

As to `CC(Nc1cc(=O)n(C)c2ccc(Nc3cc(C(=O)O)nc(Cl)c3C#N)cc12)C1CC1` (stereo not shown) [Example 2a, 6-Chloro-5-cyano-4-[[4-(1-cyclopropylethylamino)-1-methyl-2-oxo-6-quinolyl]amino]pyridine-2-carboxylic acid], the “HTRF pIC50” value by setting is: under setting [2], 6.85; under setting [1], 6.78. For `Cn1c(=O)cc(NC2CC2)c2cc(Nc3cc(C(=O)O)nc(Cl)c3C#N)ccc21` [Example 2b, 6-chloro-5-cyano-4-[[4-(cyclopropylamino)-1-methyl-2-oxo-6-quinolyl]amino]pyridine-2-carboxylic acid], the “HTRF pIC50” value under setting [2] came out at 6.55 and the “HTRF pIC50” value under setting [1] is reported as 6.41. As to `Cn1c(=O)cc(NC2(C)CC2)c2cc(Nc3cc(C(=O)O)nc(Cl)c3C#N)ccc21` [Example 2c, 6-chloro-5-cyano-4-[[1-methyl-4-[(1-methylcyclopropyl)amino]-2-oxo-6-quinolyl]amino]pyridine-2-carboxylic acid], the “HTRF pIC50” value turned out to be 6.38 under setting [2] and 6.36 under setting [1]. `Cn1c(=O)cc(NC2(C)CCCC2)c2cc(Nc3cc(C(=O)O)nc(Cl)c3C#N)ccc21` [Example 2d, 6-chloro-5-cyano-4-[[1-methyl-4-[(1-methylcyclopentyl)amino]-2-oxo-6-quinolyl]amino]pyridine-2-carboxylic acid]: the “HTRF pIC50” value is, setting by setting: under setting [2], 6.65; under setting [1], 6.51. As to `C[C@@H](Nc1cc(=O)n(C)c2ccc(Nc3ccnc(Cl)c3C#N)cc12)C(=O)NCCO` [Example 3b, (R)-2-((6-((2-chloro-3-cyanopyridin-4-yl)amino)-1-methyl-2-oxo-1,2-dihydroquinolin-4-yl)amino)-N-(2-hydroxyethyl)propanamide], the “HTRF pIC50” value runs as follows: under setting [2], 6.57; under setting [1], 6.73. Regarding `Cc1n[nH]c(C(C)Nc2cc(=O)n(C)c3ccc(Nc4ccnc(Cl)c4C#N)cc23)n1` (stereo not shown) [Example 3c, 2-Chloro-4-((1-methyl-4-((1-(3-methyl-1H-1,2,4-triazol-5-yl)ethyl)amino)-2-oxo-1,2-dihydroquinolin-6-yl)amino)nicotinonitrile], the “HTRF pIC50” value came to 6.50 under setting [2] and 6.65 under setting [1].

In the case of `C[C@@H](Nc1cc(=O)n(C)c2ccc(Nc3ccnc(Cl)c3C#N)cc12)C(=O)NC1CCCC1` [Example 3d, (R)-2-((6-((2-Chloro-3-cyanopyridin-4-yl)amino)-1-methyl-2-oxo-1,2-dihydroquinolin-4-yl)amino)-N-cyclopentylpropanamide], the “HTRF pIC50” value by setting is: under setting [2], 6.61; under setting [1], 6.62. Turning to `COCCNC(=O)[C@@H](C)Nc1cc(=O)n(C)c2ccc(Nc3ccnc(Cl)c3C#N)cc12` [Example 3e, (R)-2-((6-((2-chloro-3-cyanopyridin-4-yl)amino)-1-methyl-2-oxo-1,2-dihydroquinolin-4-yl)amino)-N-(2-methoxyethyl)propanamide], the “HTRF pIC50” value under setting [2] came to 6.42 and the “HTRF pIC50” value under setting [1] turned out to be 6.59.
